Legend:
[1] = test system: human fibrosarcoma; reference HT-1080; experiment: Fibrosarcoma HT-1080 tumours implanted s.c. in nude mice, Aprepitant alone; type: in vivo
Protocol: (§1) Immunocompromised female mice, 5-6 weeks of age were used, nu/nu Balb/c nude mice, provided by Harlan Iberica Barcelona (Spain). They were kept at 24° C. and in sterile conditions with food and water “ad libitum”. They were injected with 2×10^7 tumour cells, corresponding to cancer (human lung cancer, reference HCC-44 supplied by DSMZ) in 200 μl of PBS subcutaneous route. The tumour size was measured and the mice were evaluated for their state of health and weight daily. The mice were randomized in nine groups when the tumours reached a volume of 75 mm^3. One of the groups was treated with 200 μl of placebo (control group) and the eight remaining groups with doses of 10 (group 1), 20 (group 2), 30 (group 3), 40 (group 4), 50 (group 5), 60 (group 6), 70 (group 7) and 80 (group 8) mg per kilogram of weight and day of the NK1 receptor antagonist Aprepitant. 3 animals were treated per group, during 28 days. All the mice were sacrificed at the end of the experiment.
(§2) Immunocompromised female mice, 5-6 weeks of age were used, in the same conditions as explained in example 1. They were injected with 2×10^7 tumour cells, corresponding to a mesenchymal cell line tumour (human fibrosarcoma; reference HT-1080; supplied by DSMZ) in 200 μl of PBS by subcutaneous route. The tumour size was measured and the mice were evaluated for their state of health and weight daily. The mice were randomized in nine groups when the tumours reached a volume of 75 mm^3. One of the groups was treated with 200 μl of placebo (control group) and the eight remaining groups with doses of 10 (group 1), 20 (group 2), 30 (group 3), 40 (group 4), 50 (group 5), 60 (group 6), 70 (group 7) and 80 (group 8) mg per kilogram of weight and day of the NK1 receptor antagonist Aprepitant. 3 animals were treated per group, during 28 days. All the mice were sacrificed at the end of the experiment.

[2] = test system: human neuroblastoma; reference KELLY; experiment: Neuroblastoma KELLY tumours implanted s.c. in nude mice, Aprepitant alone; type: in vivo
Protocol: as §1
as §2, with “an embryonic” for “a mesenchymal cell line”, “neuroblastoma;” for “fibrosarcoma;”, “KELLY;” for “HT-1080;”

[3] = test system: Human adenocolon cancer SW-403; experiment: MTS cell proliferation, nanomolar antagonist, SW-403; type: cell-based; conditions: Aprepitant 1, 5 and 7 nM, vs cells grown in the absence of antagonist, time dependant
Protocol: (§3) Cell cultures of various commercial tumour cell lines stated in table 13 were used. [table] […] The number of cells was quantified using a Coulter counter. […] The culture plates were grown in the presence of increasing concentrations of non-peptide NK1 receptor antagonists. To obtain the staining in the proliferation assays, 20 μl of MTS were added to each one of the wells of the cell culture plates 90 minutes before reading the samples in a multiscan spectrophotometer (TECAN Spectra classic, Barcelona, Spain) at 492 nm (assay wavelength) and 690 nm (reference wavelength). The different doses were tested in duplicate and each experiment was performed in triplicate. The antagonist Aprepitant was used at the following concentrations: 1 nanomolar -nM-, 5 nanomolar -nM- and 7 nanomolar -nM-. […] As proliferation control, the cells were grown in the absence of said antagonist. This is expressed in FIGS. 1 to 10.

[4] = test system: Human breast cancer MT-3; experiment: MTS cell proliferation, nanomolar antagonist, MT-3; type: cell-based; conditions: Aprepitant 1, 5 and 7 nM, vs cells grown in the absence of antagonist, time dependant
Protocol: as §3

[5] = Aprepitant 10 mg/kg/day, 7 days
[6] = Aprepitant 10 mg/kg/day, 14 days
[7] = Aprepitant 10 mg/kg/day, 21 days
[8] = Aprepitant 10 mg/kg/day, 28 days
[9] = Aprepitant 20 mg/kg/day, 7 days
[10] = Aprepitant 20 mg/kg/day, 14 days
[11] = Aprepitant 20 mg/kg/day, 21 days
[12] = Aprepitant 20 mg/kg/day, 28 days
[13] = Aprepitant 30 mg/kg/day, 7 days
[14] = Aprepitant 30 mg/kg/day, 14 days
[15] = Aprepitant 30 mg/kg/day, 21 days
[16] = Aprepitant 30 mg/kg/day, 28 days
[17] = Aprepitant 40 mg/kg/day, 7 days
[18] = Aprepitant 40 mg/kg/day, 14 days
[19] = Aprepitant 40 mg/kg/day, 21 days
[20] = Aprepitant 40 mg/kg/day, 28 days
[21] = Aprepitant 50 mg/kg/day, 7 days
[22] = Aprepitant 50 mg/kg/day, 14 days
[23] = Aprepitant 50 mg/kg/day, 21 days
[24] = Aprepitant 50 mg/kg/day, 28 days
[25] = Aprepitant 60 mg/kg/day, 7 days
[26] = Aprepitant 60 mg/kg/day, 14 days
[27] = Aprepitant 60 mg/kg/day, 21 days
[28] = Aprepitant 60 mg/kg/day, 28 days
[29] = Aprepitant 70 mg/kg/day, 7 days
[30] = Aprepitant 70 mg/kg/day, 14 days
[31] = Aprepitant 70 mg/kg/day, 21 days
[32] = Aprepitant 70 mg/kg/day, 28 days
[33] = Aprepitant 80 mg/kg/day, 7 days
[34] = Aprepitant 80 mg/kg/day, 14 days
[35] = Aprepitant 80 mg/kg/day, 21 days
[36] = Aprepitant 80 mg/kg/day, 28 days

Compound: C[C@@H](O[C@H]1OCCN(Cc2n[nH]c(=O)[nH]2)[C@H]1c1ccc(F)cc1)c1cc(C(F)(F)F)cc(C(F)(F)F)c1 [Aprepitant]
- Tumour size (mean volume of the tumour) [1, 5]: 220 ± 4 cubic millimeters
- Tumour size (mean volume of the tumour) [1, 6]: 205 ± 4 cubic millimeters
- Tumour size (mean volume of the tumour) [1, 7]: 195 ± 6 cubic millimeters
- Tumour size (mean volume of the tumour) [1, 8]: 170 ± 6 cubic millimeters
- Tumour size (mean volume of the tumour) [1, 9]: 195 ± 5 cubic millimeters
- Tumour size (mean volume of the tumour) [1, 10]: 180 ± 5 cubic millimeters
- Tumour size (mean volume of the tumour) [1, 11]: 165 ± 7 cubic millimeters
- Tumour size (mean volume of the tumour) [1, 12]: 150 ± 7 cubic millimeters
- Tumour size (mean volume of the tumour) [1, 13]: 175 ± 5 cubic millimeters
- Tumour size (mean volume of the tumour) [1, 14]: 155 ± 6 cubic millimeters
- Tumour size (mean volume of the tumour) [1, 15]: 135 ± 5 cubic millimeters
- Tumour size (mean volume of the tumour) [1, 16]: 140 ± 4 cubic millimeters
- Tumour size (mean volume of the tumour) [1, 17]: 160 ± 4 cubic millimeters
- Tumour size (mean volume of the tumour) [1, 18]: 150 ± 3 cubic millimeters
- Tumour size (mean volume of the tumour) [1, 19]: 120 ± 5 cubic millimeters
- Tumour size (mean volume of the tumour) [1, 20]: 110 ± 6 cubic millimeters
- Tumour size (mean volume of the tumour) [1, 21]: 145 ± 5 cubic millimeters
- Tumour size (mean volume of the tumour) [1, 22]: 135 ± 7 cubic millimeters
- Tumour size (mean volume of the tumour) [1, 23]: 100 ± 3 cubic millimeters
- Tumour size (mean volume of the tumour) [1, 24]: 100 ± 7 cubic millimeters
- Tumour size (mean volume of the tumour) [1, 25]: 135 ± 7 cubic millimeters
- Tumour size (mean volume of the tumour) [1, 26]: 120 ± 6 cubic millimeters
- Tumour size (mean volume of the tumour) [1, 27]: 90 ± 8 cubic millimeters
- Tumour size (mean volume of the tumour) [1, 28]: 85 ± 4 cubic millimeters
- Tumour size (mean volume of the tumour) [1, 29]: 120 ± 8 cubic millimeters
- Tumour size (mean volume of the tumour) [1, 30]: 100 ± 4 cubic millimeters
- Tumour size (mean volume of the tumour) [1, 31]: 85 ± 6 cubic millimeters
- Tumour size (mean volume of the tumour) [1, 32]: 80 ± 7 cubic millimeters
- Tumour size (mean volume of the tumour) [1, 33]: 100 ± 4 cubic millimeters
- Tumour size (mean volume of the tumour) [1, 34]: 90 ± 8 cubic millimeters
- Tumour size (mean volume of the tumour) [1, 35]: 70 ± 8 cubic millimeters
- Tumour size (mean volume of the tumour) [1, 36]: 65 ± 9 cubic millimeters
- Tumour size (mean volume of the tumour) [2, 5]: 180 ± 4 cubic millimeters
- Tumour size (mean volume of the tumour) [2, 6]: 165 ± 6 cubic millimeters
- Tumour size (mean volume of the tumour) [2, 7]: 140 ± 5 cubic millimeters
- Tumour size (mean volume of the tumour) [2, 8]: 120 ± 2 cubic millimeters
- Tumour size (mean volume of the tumour) [2, 9]: 175 ± 7 cubic millimeters
- Tumour size (mean volume of the tumour) [2, 10]: 155 ± 7 cubic millimeters
- Tumour size (mean volume of the tumour) [2, 11]: 130 ± 4 cubic millimeters
- Tumour size (mean volume of the tumour) [2, 12]: 105 ± 4 cubic millimeters
- Tumour size (mean volume of the tumour) [2, 13]: 160 ± 3 cubic millimeters
- Tumour size (mean volume of the tumour) [2, 14]: 145 ± 3 cubic millimeters
- Tumour size (mean volume of the tumour) [2, 15]: 115 ± 3 cubic millimeters
- Tumour size (mean volume of the tumour) [2, 16]: 90 ± 6 cubic millimeters
- Tumour size (mean volume of the tumour) [2, 17]: 155 ± 6 cubic millimeters
- Tumour size (mean volume of the tumour) [2, 18]: 130 ± 6 cubic millimeters
- Tumour size (mean volume of the tumour) [2, 19]: 105 ± 7 cubic millimeters
- Tumour size (mean volume of the tumour) [2, 20]: 75 ± 8 cubic millimeters
- Tumour size (mean volume of the tumour) [2, 21]: 140 ± 4 cubic millimeters
- Tumour size (mean volume of the tumour) [2, 22]: 110 ± 5 cubic millimeters
- Tumour size (mean volume of the tumour) [2, 23]: 95 ± 7 cubic millimeters
- Tumour size (mean volume of the tumour) [2, 24]: 60 ± 5 cubic millimeters
- Tumour size (mean volume of the tumour) [2, 25]: 130 ± 5 cubic millimeters
- Tumour size (mean volume of the tumour) [2, 26]: 115 ± 7 cubic millimeters
- Tumour size (mean volume of the tumour) [2, 27]: 85 ± 3 cubic millimeters
- Tumour size (mean volume of the tumour) [2, 28]: 55 ± 9 cubic millimeters
- Tumour size (mean volume of the tumour) [2, 29]: 120 ± 6 cubic millimeters
- Tumour size (mean volume of the tumour) [2, 30]: 95 ± 8 cubic millimeters
- Tumour size (mean volume of the tumour) [2, 31]: 65 ± 6 cubic millimeters
- Tumour size (mean volume of the tumour) [2, 32]: 40 ± 5 cubic millimeters
- Tumour size (mean volume of the tumour) [2, 33]: 105 ± 7 cubic millimeters
- Tumour size (mean volume of the tumour) [2, 34]: 85 ± 6 cubic millimeters
- Tumour size (mean volume of the tumour) [2, 35]: 45 ± 5 cubic millimeters
- Tumour size (mean volume of the tumour) [2, 36]: 25 ± 6 cubic millimeters
- Proliferation of tumour cells (MTS) [3]: increase was observed of proliferation
- Proliferation of tumour cells (MTS) [4]: increase was observed of proliferation

From patent US10463670B2, “Use of non-peptide NK1 antagonists in a predetermined dose for the treatment of cancer” (SERVICIO ANDALUZ DE SALUD, priority 2013, dated 2019)
